Like-named read-outs stand apart in the source and are kept apart here.
What was measured:
Format in all cases: cell-based
[1] = test system: PC-3 (androgen independent prostate cancer cells); test: Anti-proliferation activity against PC-3 cells; conditions: for IC50: Homo sapiens
Protocol: (§1) Upon completion of synthesis of library of compounds in Examples 23 and 24, the compounds were evaluated for anti-proliferative activity against SkBr3 (Her2 overexpressing breast cancer cells), MCF-7 (estrogen receptor positive breast cancer cells), HCT-116 (colon cancer cells characterized by wild-type p53), PL45 (pancreatic cancer cells), LNCaP (androgen sensitive prostate cancer cells) and PC-3 (androgen independent prostate cancer cells) cell lines. […] The monosubstituted benzamide variants improved activity.
Cells were maintained in a 1:1 mixture of Advanced DMEM/F12 (Gibco) supplemented with non-essential amino acids, L-glutamine (2 mM), streptomycin (500 ng/mL), penicillin (100 units/mL), and 10% FBS. Cells were grown to confluence in a humidified atmosphere (37° C., 5% CO2), seeded (2000/well, 100 μl) in 96-well plates, and allowed to attach overnight. […] […] Cells incubated in 1% DMSO were used at 100% proliferation, and values were adjusted accordingly. IC50 values were calculated from separate experiments performed in triplicate using GraphPad Prism.

[2] = test system: SkBr3 (Her2 overexpressing breast cancer cells); test: Anti-proliferation activity against SkBr3 cells (MTS/PMS); conditions: Homo sapiens, SK-BR-3
Protocol: (§2) Upon completion of synthesis of library of compounds in Examples 23 and 24, the compounds were evaluated for anti-proliferative activity against SkBr3 (Her2 overexpressing breast cancer cells), MCF-7 (estrogen receptor positive breast cancer cells), HCT-116 (colon cancer cells characterized by wild-type p53), PL45 (pancreatic cancer cells), LNCaP (androgen sensitive prostate cancer cells) and PC-3 (androgen independent prostate cancer cells) cell lines.
(§3) Cells were maintained in a 1:1 mixture of Advanced DMEM/F12 (Gibco) supplemented with non-essential amino acids, L-glutamine (2 mM), streptomycin (500 ng/mL), penicillin (100 units/mL), and 10% FBS. Cells were grown to confluence in a humidified atmosphere (37° C., 5% CO2), seeded (2000/well, 100 μl) in 96-well plates, and allowed to attach overnight. Compound or GDA at varying concentrations in DMSO (1% DMSO final concentration) was added, and cells were returned to the incubator for 72 hours. At 72 hours, the number of viable cells was determined using an MTS/PMS cell proliferation kit (Promega) per the manufacturer's instructions. Cells incubated in 1% DMSO were used at 100% proliferation, and values were adjusted accordingly. IC50 values were calculated from separate experiments performed in triplicate using GraphPad Prism.
as §3, with “μg/mL),” for “ng/mL),”, “μL)” for “μl)”

[3] = test system: LNCaP (androgen sensitive prostate cancer cells); test: Anti-proliferation activity against LNCaP cells; conditions: for IC50: Homo sapiens, LNCaP, Table 6, 72 hours, MTS/PMS, mean ± standard deviation, read-out: IC50 LnCaP
Protocol: as §1, §3

[4] = test system: MCF-7 (estrogen receptor positive breast cancer cells); test: Anti-proliferation activity against MCF-7 cells (MTS/PMS); conditions: for IC50: Homo sapiens, MCF7; for fold less active than the 8-methyl derivative: MCF-7 cells
Protocol: as §2, §3
as §3, with “μg/mL),” for “ng/mL),”, “μL)” for “μl)”

[5] = Table 6, 72 hours, MTS/PMS, mean ± standard deviation, read-out: IC50 SKBr3
[6] = PC-3, Table 6, 72 hours, MTS/PMS, mean ± standard deviation, read-out: IC50 PC-3
[7] = Table 6, 72 hours, MTS/PMS, mean ± standard deviation, read-out: IC50 MCF-7
[8] = Table 19, 7-oxyalkylamino and 7-oxypiperidinyl analogues, read-out: IC50, SKBr3
[9] = Table 19, 7-oxyalkylamino and 7-oxypiperidinyl analogues, read-out: IC50, MCF-7

COc1cccc(-c2cc(C(=O)Nc3cc4ccc(OCc5cccnc5)c(C)c4oc3=O)ccc2OC)c1 [3′,6-dimethoxy-N-(8-methyl-2-oxo-7-(pyridin-3-ylmethoxy)-2H-chromen-3-yl)-[1,1′-biphenyl]-3-carboxamide]
IC50 ([1]; PC-3, 24 hr., read-out: IC50): 3.8 µM

COc1cccc(-c2cc(C(=O)Nc3cc4cc(OC)c(O[C@@H]5OC(C)(C)[C@H](OC)[C@@H](O)[C@H]5O)c(C)c4oc3=O)ccc2OC)c1 [26a, N-(7-((2S,3R,4S,5R)-3,4-dihydroxy-5-methoxy-6,6-dimethyltetrahydro-2H-pyran-2-yloxy)-6-methoxy-8-methyl-2-oxo-2H-chromen-3-yl)-3′,6-dimethoxybiphenyl-3-carboxamide]
IC50 [2, 5]: 58.8 ± 1.3 µM
IC50 [1, 6]: 35.4 µM
fold increase in anti-proliferation activity versus the 6-H derivative ([1]; PC-3 cells): 2 fold
IC50 [3]: 6.6 µM
IC50 [4, 7]: > 100 µM

CCCOc1cc2cc(NC(=O)c3ccc(OC)c(-c4cccc(OC)c4)c3)c(=O)oc2c(C)c1O[C@@H]1OC(C)(C)[C@H](OC)[C@@H](O)[C@H]1O [26b, N-(7-((2S,3R,4S,5R)-3,4-dihydroxy-5-methoxy-6,6-dimethyltetrahydro-2H-pyran-2-yloxy)-8-methyl-2-oxo-6-propoxy-2H-chromen-3-yl)-3′,6-dimethoxybiphenyl-3-carboxamide]
IC50 [2, 5]: > 100 µM
IC50 [1, 6]: 5.6 ± 5.7 µM
fold increase in anti-proliferation activity versus the 6-H derivative ([1]; PC-3 cells): 10 fold
IC50 [3]: 3 ± 0.6 µM
IC50 [4, 7]: > 100 µM

COc1cccc(-c2cc(C(=O)Nc3cc4cc(OC(C)C)c(O[C@@H]5OC(C)(C)[C@H](OC)[C@@H](O)[C@H]5O)c(C)c4oc3=O)ccc2OC)c1 [26c, N-(7-((2S,3R,4S,5R)-3,4-dihydroxy-5-methoxy-6,6-dimethyltetrahydro-2H-pyran-2-yloxy)-6-isopropoxy-8-methyl-2-oxo-2H-chromen-3-yl)-3′,6-dimethoxybiphenyl-3-carboxamide]
IC50 [2, 5]: 58.6 ± 5.4 µM
IC50 [1, 6]: 60.7 ± 9.1 µM
IC50 [3]: 14.4 ± 4.2 µM
times less active than the corresponding 6-H ([3]; LnCaP cells): ~7 times
IC50 [4, 7]: 66.9 ± 3.1 µM

COc1cccc(-c2cc(C(=O)Nc3cc4ccc(O[C@@H]5OC(C)(C)[C@H](OC)[C@@H](O)[C@H]5O)c(Cc5ccccc5)c4oc3=O)ccc2OC)c1 [26e, N-(8-benzyl-7-((2R,3R,4S,5R)-3,4-dihydroxy-5-methoxy-6,6-dimethyltetrahydro-2H-pyran-2-yloxy)-2-oxo-2H-chromen-3-yl)-3′,6-dimethoxybiphenyl-3-carboxamide]
IC50 [2, 5]: > 100 µM
IC50 [1, 6]: > 100 µM
IC50 [3]: 49.7 ± 25 µM
IC50 [4, 7]: > 100 µM

COc1cccc(-c2cc(C(=O)Nc3cc4ccc(O[C@@H]5OC(C)(C)[C@H](OC)[C@@H](O)[C@H]5O)c(-c5ccccc5)c4oc3=O)ccc2OC)c1 [26f, N-(7-((2R,3R,4S,5R)-3,4-dihydroxy-5-methoxy-6,6-dimethyltetrahydro-2H-pyran-2-yloxy)-2-oxo-8-phenyl-2H-chromen-3-yl)-3′,6-dimethoxybiphenyl-3-carboxamide]
IC50 [2, 5]: 17.3 ± 3.4 µM
IC50 [1, 6]: > 100 µM
IC50 [3]: 1 ± 0.1 µM
IC50 [4, 7]: > 100 µM

CCc1c(O[C@@H]2OC(C)(C)[C@H](OC)[C@@H](O)[C@H]2O)ccc2cc(NC(=O)c3ccc(OC)c(-c4cccc(OC)c4)c3)c(=O)oc12 [26h, N-(7-((2R,3R,4S,5R)-3,4-dihydroxy-5-methoxy-6,6-dimethyltetrahydro-2H-pyran-2-yloxy)-8-ethyl-2-oxo-2H-chromen-3-yl)-3′,6-dimethoxybiphenyl-3-carboxamide]
IC50 [2, 5]: 28.6 ± 1.1 µM
IC50 [1, 6]: 1.8 ± 0.6 µM
fold increased activity versus the 8-methyl derivative ([1]; PC-3 cells): 10 fold
IC50 [3]: 1.6 ± 0.3 µM
IC50 [4, 7]: 41.7 ± 14 µM

COc1cc2cc(NC(=O)c3cc4ccccc4[nH]3)c(=O)oc2c(C)c1O[C@@H]1OC(C)(C)[C@H](OC)[C@@H](O)[C@H]1O [26i, N-(7-((2S,3R,4S,5R)-3,4-dihydroxy-5-methoxy-6,6-dimethyltetrahydro-2H-pyran-2-yloxy)-6-methoxy-8-methyl-2-oxo-2H-chromen-3-yl)-1H-indole-2-carboxamide]
IC50 [2, 5]: 25.1 ± 7.7 µM
IC50 [1, 6]: 20.2 ± 9.8 µM
IC50 [3]: 10.5 ± 0.3 µM
IC50 [4, 7]: 24.4 ± 1.2 µM

CCCOc1cc2cc(NC(=O)c3cc4ccccc4[nH]3)c(=O)oc2c(C)c1O[C@@H]1OC(C)(C)[C@H](OC)[C@@H](O)[C@H]1O [26j, N-(7-((2S,3R,4S,5R)-3,4-dihydroxy-5-methoxy-6,6-dimethyltetrahydro-2H-pyran-2-yloxy)-8-methyl-2-oxo-6-propoxy-2H-chromen-3-yl)-1H-indole-2-carboxamide]
IC50 [2, 5]: 2.1 ± 0.8 µM
IC50 [1, 6]: 6.2 ± 1.8 µM
IC50 [3]: 1.8 ± 0.7 µM
IC50 [4, 7]: 2.1 ± 0.1 µM

CO[C@@H]1[C@@H](O)[C@@H](O)[C@H](Oc2c(OC(C)C)cc3cc(NC(=O)c4cc5ccccc5[nH]4)c(=O)oc3c2C)OC1(C)C [26k, N-(7-((2S,3R,4S,5R)-3,4-dihydroxy-5-methoxy-6,6-dimethyltetrahydro-2H-pyran-2-yloxy)-6-isopropoxy-8-methyl-2-oxo-2H-chromen-3-yl)-1H-indole-2-carboxamide]
IC50 [2, 5]: 20.7 ± 0.4 µM
IC50 [1, 6]: 11.9 µM
IC50 [3]: 11.4 µM
IC50 [4, 7]: 20 ± 1 µM

CO[C@@H]1[C@@H](O)[C@@H](O)[C@H](Oc2ccc3cc(NC(=O)c4cc5ccccc5[nH]4)c(=O)oc3c2-c2ccccc2)OC1(C)C [26n, N-(7-((2R,3R,4S,5R)-3,4-dihydroxy-5-methoxy-6,6-dimethyltetrahydro-2H-pyran-2-yloxy)-2-oxo-8-phenyl-2H-chromen-3-yl)-1H-indole-2-carboxamide]
IC50 [2, 5]: 38.8 ± 8.3 µM
IC50 [1, 6]: 28 ± 12.1 µM
IC50 [3]: 27.6 ± 10.8 µM
IC50 [4, 7]: 22.9 ± 2.1 µM
fold less active than the 8-methyl derivative [4]: 40 fold

COc1c(O[C@@H]2OC(C)(C)[C@H](OC)[C@@H](O)[C@H]2O)ccc2cc(NC(=O)c3cc4ccccc4[nH]3)c(=O)oc12 [26o, N-(7-((2S,3R,4S,5R)-3,4-dihydroxy-5-methoxy-6,6-dimethyltetrahydro-2H-pyran-2-yloxy)-8-methoxy-2-oxo-2H-chromen-3-yl)-1H-indole-2-carboxamide]
IC50 [2, 5]: 9.7 ± 1 µM
IC50 [1, 6]: > 100 µM
IC50 [3]: > 100 µM
IC50 [4, 7]: > 100 µM

CCc1c(O[C@@H]2OC(C)(C)[C@H](OC)[C@@H](O)[C@H]2O)ccc2cc(NC(=O)c3cc4ccccc4[nH]3)c(=O)oc12 [26p, N-(7-((2R,3R,4S,5R)-3,4-dihydroxy-5-methoxy-6,6-dimethyltetrahydro-2H-pyran-2-yloxy)-8-ethyl-2-oxo-2H-chromen-3-yl)-1H-indole-2-carboxamide]
IC50 [2, 5]: 4.3 ± 3.4 µM
IC50 [1, 6]: > 100 µM
IC50 [3]: > 100 µM
IC50 [4, 7]: 4.3 ± 2.5 µM
fold less active than the 8-methyl derivative [4]: 7 fold

CC(C)=CCc1cc(C(=O)Nc2cc3ccc(OC4CCN(C)CC4)c(C)c3oc2=O)ccc1OC1CCN(C)CC1 [KU-458]
IC50 [2, 8]: 0.095 µM
IC50 [4, 9]: 0.15 µM

COc1c(OC2CCN(C)CC2)ccc2cc(NC(=O)c3ccc(OCCN(C)C)c(CC=C(C)C)c3)c(=O)oc12 [KU-459]
IC50 [2, 8]: 0.29 µM
IC50 [4, 9]: 0.09 µM

Reference: patent US9120774B2 (University of Kansas, priority 2009, dated 2015)
